# Experimental data: patent publication US20190328784A1, “CHIMERIC ANTIGEN RECEPTORS (CARS) SPECIFIC FOR MUC1 AND METHODS FOR THEIR USE” (Poseida Therapeutics, Inc., priority 2016, published 2019)
# Entries after “also recorded” stand apart in the source; their conditions may differ. Read-outs that look alike come from different tables or passages of the source.
# T1: cleaved, non-shed MUC1-C (Homo sapiens, UniProt P15941)
# T1 construct: expressed in transfected cells; host or cells: K562, Raji and RPMI8226 cells modified to express MUC1-C
# T1 sequence (P15941 with tags, fused parts or gaps): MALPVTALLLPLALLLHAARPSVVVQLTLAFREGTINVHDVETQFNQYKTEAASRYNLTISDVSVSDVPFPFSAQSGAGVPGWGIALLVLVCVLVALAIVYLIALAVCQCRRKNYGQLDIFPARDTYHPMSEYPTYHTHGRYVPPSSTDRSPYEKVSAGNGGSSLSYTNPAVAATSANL
# B1: F1C-HL: MUC1 scFv CAR; single chain antibody SEQ ID NO: 22 (protein)
# scFv: QITLKESGPGILQPSQTLSLTCSFSGFSLSTSGMGVSWIRQPSGKGLEWLSHIYWDDDKRYNPSLKSRLSISKDTSRNQVFLKITSVDTADTATYYCAPGVSSWFPYWGPGTLVTVSAGGGGSGGGGSGGGGSSIVMTQTPKFLPVSAGDRVTVTCKASQSVGNYVAWYQQKPGQSPKLLIYFASNRYSGVPDRFTGSGSGTDFTFTISSVQVEDLAVYFCQQHYIFPYTFGSGTKLEIK
# modifications: left off: a dimerising Fc or GST
# B2: K2B-HL: MUC1 scFv CAR; single chain antibody SEQ ID NO: 10 (protein)
# scFv: QVQLKESGPGLVAPSQSLSMTCTVSGFSLTTYGVHWVRQPPGKGLEWLVVIWSDGSTTYNSPLKSRLSISRDNSKSQVFLKMNSLQADDTAIYYCAKNYLGSLDYWGQGTSVTVSSGGGGSGGGGSGGGGSDVVLTQTPLSLPVSLGDQASISCRSSQSLVHNNGDTYLHWYLQKPGQSPKLLIYKVSNRFSGVPDRFSGSGSGTDFTFKISRVEAEDLGVYFCSQTTHVPLTFGAGTKLELK
# modifications: left off: a dimerising Fc or GST
# How the values were obtained:
# cells [1] = test: AP1903 amount needed in vitro for effective signaling of cells; type: cell-based; details: conversion with 1600 Da MW
# Protocol: The fixed dose of AP1903 for injection used, for example, may be 0.4 mg/kg intravenously infused over 2 hours. The amount of AP1903 needed in vitro for effective signaling of cells is 10-100 nM (1600 Da MW). This equates to 16-160 μg/L or ^˜0.016-1.6 μg/kg (1.6-160 μg/kg). Doses up to 1 mg/kg were well-tolerated in the Phase I study of AP1903 described above. Therefore, 0.4 mg/kg may be a safe and effective dose of AP1903 for this Phase I study in combination with the therapeutic cells.
# Human pan T-cells = test: iC9 safety switch test: modified T cells incubated 24 hours with AP1903, viability by 7-AAD flow cytometry; type: cell-based; details: 24 hours incubation, 0-1000 nM tested
# Source text: FIG. 7 is a series of flow cytometry plots depicting the abundance of cells moving from an area of live cells (the gated lower right quadrant) to an area populated by apoptotic cells (the upper left quadrant) as a function of increasing dosage of the induction agent (AP1903) in cells modified to express a therapeutic agent (a CARTyrin) alone or in combination with an inducible caspase polypeptide of the disclosure (encoded by an iC9 construct (also known as a “safety switch”) introduced into cells by a piggyBac (PB) transposase) at day 12 post nucleofection. […]
# FIG. 9 is a pair of graphs depicting a quantification of the aggregated results shown either in FIG. 7 (left graph) or FIG. 8 (right graph). […]
# To test the iC9 safety switch, each of the four modified T cells were incubated for 24 hours with 0, 0.1 nM, 1 nM, 10 nM, 100 nM or 1000 nM AP1903 (an induction agent for […]). Viability was assessed by flow cytometry using 7-aminoactinomycin D (7-AAD), a fluorescent intercalator, as a marker for cells undergoing apoptosis.
# cells [2] = details: cited from earlier work
# [3] = cited from earlier work
# cleaved, non-shed MUC1-C = target: T1, cleaved, non-shed MUC1-C; test: MUC1-scFv CAR function/epitope assay (degranulation, CD107a+ cells); type: cell-based; details: cells that received the extracellular MUC1-C construct
# Protocol: (§1) FIG. 14 is a graph depicting a MUC1-scFv CAR function assay. […] MUC1-scFv function is measured by the extent of degranulation of the cells in each condition contacted with the MUC1-scFv along the X-axis. Degranulation was measured as the percentage of total cells that were CD107a-positive (CD107a+).
# (§2) The results of a functional assay are provided in the graph wherein MUC1-C scFv-CAR function was measured by the extent of degranulation of the cells in each condition contacted with the MUC1-scFv along the X-axis. Degranulation was measured as the percentage of total cells that were CD107a-positive (CD107a+). The chart summarizes the relative activity of each MUC1-C scFv-CAR during the functional assay.
# (§3) The function of each of the MUC1-scFv CARs described in this example was assayed in K562 cells, Raji cells and RPMI8226 cells (“8226”) cells in either unmodified conditions or following transfection with MUC1 constructs (either full-length or MUC1-C) to generate modified K562 cells, modified Raji cells and modified 8226 cells. Function of each of the MUC1-scFv CARs was measured by the CAR's ability to degranulate each cell type. Degranulation was measured by the percent of total cells that express […] (percentage of […] cells).
# (§4) The F1C-HL, M1A-LH and K2B-HL MUC1-scFv CARs were further tested to determine epitope binding.
# full length MUC1 = target: T2, full length MUC1 (Homo sapiens, UniProt P15941); test: as above; type: cell-based; details: cells expressing full-length MUC1
# T2 construct: expressed in transfected cells; host or cells: K562, Raji and RPMI8226 cells
# Protocol: as §1, §2, §3, §4
# [4] = tested on: MUC1 expressed on activated T cells; test: as above; type: cell-based, human
# Protocol: as §2
# As an initial study, MUC1 expression was assessed in different cell types (see FIG. 13). Cells included in this study: K562 cells (immortalized human chronic myelogenous leukemia cells), Raji cells (human hematopoietic cell line used as a model of cancer), Raji cells modified to express MUC1-C, activated T cells and RPMI8226 cells (human peripheral blood B cell plasmacytoma/myeloma cell line). MUC1 expression in each of these cells was assessed by staining with an anti-MUC1-N antibody.
# unmodified cells = test: as above; type: cell-based, human
# Protocol: as §3, §4
# T2 sequence (P15941 24-1255): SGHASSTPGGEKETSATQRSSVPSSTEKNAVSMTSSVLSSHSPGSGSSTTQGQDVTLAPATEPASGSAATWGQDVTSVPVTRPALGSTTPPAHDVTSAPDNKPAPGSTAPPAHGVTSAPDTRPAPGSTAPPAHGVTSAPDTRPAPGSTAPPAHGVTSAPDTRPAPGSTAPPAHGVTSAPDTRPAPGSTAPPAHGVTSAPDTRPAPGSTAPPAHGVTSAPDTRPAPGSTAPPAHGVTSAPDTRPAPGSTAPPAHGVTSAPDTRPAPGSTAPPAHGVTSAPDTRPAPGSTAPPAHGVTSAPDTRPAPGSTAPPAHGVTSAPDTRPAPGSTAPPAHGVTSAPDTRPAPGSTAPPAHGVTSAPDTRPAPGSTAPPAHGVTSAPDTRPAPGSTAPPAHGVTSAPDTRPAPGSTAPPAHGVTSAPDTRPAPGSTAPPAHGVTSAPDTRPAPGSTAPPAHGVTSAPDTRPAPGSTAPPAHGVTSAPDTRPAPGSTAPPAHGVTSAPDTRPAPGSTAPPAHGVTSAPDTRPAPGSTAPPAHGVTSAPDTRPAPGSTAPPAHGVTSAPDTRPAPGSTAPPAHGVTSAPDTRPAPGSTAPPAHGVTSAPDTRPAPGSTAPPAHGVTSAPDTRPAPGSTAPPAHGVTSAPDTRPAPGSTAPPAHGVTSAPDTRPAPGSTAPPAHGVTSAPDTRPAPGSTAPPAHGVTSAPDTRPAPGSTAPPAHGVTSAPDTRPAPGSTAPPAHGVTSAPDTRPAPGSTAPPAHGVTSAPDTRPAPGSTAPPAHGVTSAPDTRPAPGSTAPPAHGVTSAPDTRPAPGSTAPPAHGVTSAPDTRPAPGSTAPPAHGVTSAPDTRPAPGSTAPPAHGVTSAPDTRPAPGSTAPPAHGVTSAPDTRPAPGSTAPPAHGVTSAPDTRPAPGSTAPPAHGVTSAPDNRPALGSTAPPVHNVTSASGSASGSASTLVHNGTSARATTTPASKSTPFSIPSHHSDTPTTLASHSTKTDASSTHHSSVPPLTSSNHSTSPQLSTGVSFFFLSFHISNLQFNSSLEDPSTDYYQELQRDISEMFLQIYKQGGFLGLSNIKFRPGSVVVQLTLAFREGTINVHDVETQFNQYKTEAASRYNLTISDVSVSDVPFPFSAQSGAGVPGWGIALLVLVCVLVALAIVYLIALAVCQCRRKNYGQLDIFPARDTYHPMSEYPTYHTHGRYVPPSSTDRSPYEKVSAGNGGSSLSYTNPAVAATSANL
Molecule,"amount needed for effective signaling of cells, converted (cells [1]) [µg/L]","amount needed for effective signaling of cells, converted to dose (cells [1]) [µg/kg]",concentration at which AP1903 induces apoptosis (lowest of the study) (Human pan T-cells) [nM],amount needed in vitro for effective signaling of cells (cells [2]) [nM],AP1903 plasma levels versus dose ([3]; 0.01-1.0 mg/kg dose range),plasma levels as % of maximal concentration ([3]; 0.5 hours post-dose),plasma levels as % of maximal concentration ([3]; 2 hours post-dose) [%],plasma levels as % of maximal concentration ([3]; 10 hours post-dose) [%],well-tolerated doses ([3]; Phase I study of AP1903),"mean Cmax ([3]; single doses 0.01-1.0 mg/kg infused IV over 2 hours, 24 healthy volunteers, plasma) [µg/mL]","CAR reactivity / binding (degranulation) (cleaved, non-shed MUC1-C)",CAR reactivity / binding (degranulation) (full length MUC1),CAR reactivity (degranulation) [4],CAR binding (degranulation) (unmodified cells)
"CC[C@H](C(=O)N1CCCC[C@H]1C(=O)O[C@H](CCc1ccc(OC)c(OC)c1)c1cccc(OCC(=O)NCCNC(=O)COc2cccc([C@@H](CCc3ccc(OC)c(OC)c3)OC(=O)[C@@H]3CCCCN3C(=O)[C@@H](CC)c3cc(OC)c(OC)c(OC)c3)c2)c1)c1cc(OC)c(OC)c(OC)c1 (relative stereo) [AP1903, 2-Piperidinecarboxylic acid, 1-[(2S)-1-oxo-2-(3,4,5-trimethoxyphenyl)butyl]−, 1,2-ethanediylbis[imino(2-oxo-2,1-ethanediyl)oxy-3,1-phenylene[(1R)-3-(3,4-dimethoxyphenyl)propylidene]]ester, [2S-[1(R*),2R*[S*[S*[1 (R*),2R*]]]]]-(9C1)]",16 to 160,0.016 to 1.6,≤ 0.1,10 to 100,directly proportional to dose,approximately 18%,~7,~1,up to 1 mg/kg,0.01 to 1.275,,,,
B1,,,,,,,,,,,binds,reacts against full length MUC1; also recorded: binds,including that expressed on activated T cells,binds
B2,,,,,,,,,,,"only reacts against cleaved, non-shed MUC1-C; also recorded: specifically binds",not full length MUC1,,
